The record followed here is ChEMBL document CHEMBL5724914, “Linking interpersonal differences in gut microbiota composition and drug biotransformation activity” (2024).

The conditions of series [1]: human gut metagenome, 24 h, 2 µM.
Series [2] in a line: The drug is tested on Z-026 corresponding to metagenome with ENA study accession number: PRJEB37062 and ENA sample accession number: ERS12561825 for biotransformation under anaerobic condition. The drug concentrations were measured over 9 timepoints collected between 0 and 24 hours of incubation by liquid-chromatography-coupled mass spectrometry (LC–MS). The note with it: 2 µM.

Series [3] in a line: The drug is tested on WLS-370 corresponding to human gut metagenome with ENA study accession number: PRJEB37062 and ENA sample accession number: ERS12561793 for biotransformation under anaerobic condition. The drug concentrations were measured over 9 timepoints collected between 0 and 24 hours of incubation by liquid-chromatography-coupled mass spectrometry (LC–MS). The conditions noted are these: 2 µM.

For series [4] the following is noted: human gut metagenome, 24 h, 2 µM. This is another data set of the same source.
Series [5] in a line: The drug is tested on WLS-086 corresponding to human gut metagenome with ENA study accession number: PRJEB37062 and ENA sample accession number: ERS12561752 for biotransformation under anaerobic condition. The drug concentrations were measured over 9 timepoints collected between 0 and 24 hours of incubation by liquid-chromatography-coupled mass spectrometry (LC–MS). The note with it: 2 µM.

A short description of series [6]: The drug is tested on WLS-010 corresponding to human gut metagenome with ENA study accession number: PRJEB37062 and ENA sample accession number: ERS12561743 for biotransformation under anaerobic condition. The drug concentrations were measured over 9 timepoints collected between 0 and 24 hours of incubation by liquid-chromatography-coupled mass spectrometry (LC–MS). The conditions noted are these: 2 µM.

The nature of series [7]: The drug is tested on WLS-052 corresponding to human gut metagenome with ENA study accession number: PRJEB37062 and ENA sample accession number: ERS12561747 for biotransformation under anaerobic condition. The drug concentrations were measured over 9 timepoints collected between 0 and 24 hours of incubation by liquid-chromatography-coupled mass spectrometry (LC–MS). The note with it: 2 µM.

The nature of series [8]: The drug is tested on Z-001 corresponding to mouse gut metagenome with ENA study accession number: PRJEB37062 and ENA sample accession number: ERS12561801 for biotransformation under anaerobic condition. The drug concentrations were measured over 9 timepoints collected between 0 and 24 hours of incubation by liquid-chromatography-coupled mass spectrometry (LC–MS). The note with it: 2 µM.

For series [9] the following is noted: human gut metagenome, 24 h, 2 µM. The source holds these as a separate data set.
For series [10] the following is noted: human gut metagenome, 24 h, 2 µM. This is another data set of the same source.
The conditions of series [11]: human gut metagenome, 24 h, 2 µM. The source holds these as a separate data set.
Series [12] can be described thus: The drug is tested on Z-014 corresponding to rat gut metagenome with ENA study accession number: PRJEB37062 and ENA sample accession number: ERS12561814 for biotransformation under anaerobic condition. The drug concentrations were measured over 9 timepoints collected between 0 and 24 hours of incubation by liquid-chromatography-coupled mass spectrometry (LC–MS). The note with it: 2 µM.

The conditions of series [13]: human gut metagenome, 24 h, 2 µM. This is another data set of the same source.
The conditions of series [14]: human gut metagenome, 24 h, 2 µM. This is another data set of the same source.
For series [15] the following is noted: human gut metagenome, 24 h, 2 µM. This is another data set of the same source.
The conditions of series [16]: human gut metagenome, 24 h, 2 µM. This is another data set of the same source.
Series [17] can be described thus: The drug is tested on Z-007 corresponding to rat gut metagenome with ENA study accession number: PRJEB37062 and ENA sample accession number: ERS12561807 for biotransformation under anaerobic condition. The drug concentrations were measured over 9 timepoints collected between 0 and 24 hours of incubation by liquid-chromatography-coupled mass spectrometry (LC–MS). The note with it: 2 µM.

The conditions of series [18]: human gut metagenome, 24 h, 2 µM. This is another data set of the same source.
For series [19] the following is noted: human gut metagenome, 24 h, 2 µM. This is another data set of the same source.
A short description of series [20]: The drug is tested on WLS-077 corresponding to human gut metagenome with ENA study accession number: PRJEB37062 and ENA sample accession number: ERS12561750 for biotransformation under anaerobic condition. The drug concentrations were measured over 9 timepoints collected between 0 and 24 hours of incubation by liquid-chromatography-coupled mass spectrometry (LC–MS). The note with it: 2 µM.
Note: call rule not given here.

For `CN(C)CCOC(C)(c1ccccc1)c1ccccn1.O=C(O)CCC(=O)O` (stereo not given) [DOXYLAMINE SUCCINATE], the “Bacterial Biotransformation” value in series [1], in [2], in series [3], in series [4], in series [5] and in [6] was “Compound NOT metabolized” throughout. Also, the “Bacterial Biotransformation” value in series [7], in series [8], in [9], in series [10], in series [11] and in [12] was “Compound NOT metabolized” in each case. Moreover, the “Bacterial Biotransformation” value in series [13], in series [14], in series [15], in series [16], in series [17] and in series [18] was “Compound NOT metabolized” each time. Moreover, the “Bacterial Biotransformation” value in series [19] and in [20] was “Compound NOT metabolized” in each case.

With `Br.CN1CCC[C@@H]1Cc1c[nH]c2ccc(CCS(=O)(=O)c3ccccc3)cc12` [ELETRIPTAN HYDROBROMIDE], the “Bacterial Biotransformation” value in series [1] is recorded as “Compound metabolized”; in [2], “Compound NOT metabolized”; in series [3], “Compound NOT metabolized”; in series [4] it was “Compound NOT metabolized”; in [5] it was “Compound metabolized”; in [6], “Compound metabolized”. Moreover, the “Bacterial Biotransformation” value in series [7] is listed as “Compound NOT metabolized”; in series [8] it was “Compound NOT metabolized”; in series [9] it was “Compound metabolized”; in series [10] it was “Compound NOT metabolized”; in series [11], “Compound metabolized”; in series [12], “Compound NOT metabolized”. For the same compound, the “Bacterial Biotransformation” value in series [13] is “Compound NOT metabolized”; in [14], “Compound NOT metabolized”; in [15] it was “Compound NOT metabolized”; in [16], “Compound metabolized”; in [17], “Compound NOT metabolized”; in series [18] it was “Compound NOT metabolized”. The “Bacterial Biotransformation” value in series [19] is “Compound metabolized”; in series [20], “Compound NOT metabolized”.

`CCOc1ccc2nc(S(N)(=O)=O)sc2c1` [ETHOXZOLAMIDE]: the “Bacterial Biotransformation” value in series [1] is “Compound NOT metabolized”; in [2], “Compound NOT metabolized”; in [3], “Compound NOT metabolized”; in series [4], “Compound NOT metabolized”; in [5], “Compound metabolized”; in series [6], “Compound NOT metabolized”. Also, the “Bacterial Biotransformation” value in series [7], in [8], in series [9], in series [10], in [11] and in [12] was “Compound NOT metabolized” in each case. For the same compound, the “Bacterial Biotransformation” value in series [13], in series [14], in series [15], in series [16], in [17] and in [18] was “Compound NOT metabolized” in each case. Moreover, the “Bacterial Biotransformation” value in series [19] and in series [20] was “Compound NOT metabolized” each time.

On to `CCc1cccc2c3c([nH]c12)C(CC)(CC(=O)O)OCC3` (stereo not given) [ETODOLAC], for which the “Bacterial Biotransformation” value in series [1] is “Compound metabolized”; in series [2], “Compound NOT metabolized”; in [3] it was “Compound metabolized”; in series [4], “Compound metabolized”; in series [5] it was “Compound metabolized”; in series [6] it was “Compound metabolized”. For the same compound, the “Bacterial Biotransformation” value in series [7] is recorded as “Compound metabolized”; in series [8] it was “Compound NOT metabolized”; in series [9], “Compound metabolized”; in series [10] it was “Compound metabolized”; in series [11] it was “Compound metabolized”; in [12], “Compound NOT metabolized”. Also, the “Bacterial Biotransformation” value in series [13] was “Compound metabolized”; in [14] it was “Compound metabolized”; in [15], “Compound metabolized”; in series [16] it was “Compound metabolized”; in series [17] it was “Compound NOT metabolized”; in series [18] it was “Compound NOT metabolized”. For the same compound, the figures for the “Bacterial Biotransformation” value in series [19] and in series [20] were “Compound metabolized” and “Compound NOT metabolized”, respectively.

As to `CC(=O)OCC(CCn1cnc2cnc(N)nc21)COC(C)=O` [FAMCICLOVIR], the “Bacterial Biotransformation” value in series [1], in [2], in series [3], in [4], in series [5] and in [6] was “Compound metabolized” in each case. In addition, the “Bacterial Biotransformation” value in [7] is listed as “Compound metabolized”; in [8], “Compound NOT metabolized”; in series [9], “Compound metabolized”; in [10], “Compound metabolized”; in series [11], “Compound metabolized”; in series [12] it was “Compound metabolized”. The “Bacterial Biotransformation” value in series [13] is reported as “Compound metabolized”; in series [14], “Compound metabolized”; in series [15], “Compound metabolized”; in series [16] it was “Compound metabolized”; in series [17], “Compound metabolized”; in [18], “Compound NOT metabolized”. Moreover, the “Bacterial Biotransformation” value in series [19] and in series [20] was “Compound metabolized” each time.

For `CC(C)(C)NC(=O)[C@H]1CC[C@H]2[C@@H]3CC[C@H]4NC(=O)C=C[C@]4(C)[C@H]3CC[C@]12C` [FINASTERIDE], the “Bacterial Biotransformation” value in series [1], in series [2], in series [3], in series [4], in series [5] and in series [6] was “Compound metabolized” in each case. The “Bacterial Biotransformation” value in series [7] is listed as “Compound metabolized”; in series [8] it was “Compound NOT metabolized”; in [9], “Compound metabolized”; in series [10], “Compound metabolized”; in series [11], “Compound metabolized”; in series [12], “Compound NOT metabolized”. Besides, the “Bacterial Biotransformation” value was “Compound metabolized” in series [13]; “Compound metabolized” in [14]; “Compound metabolized” in [15]; “Compound metabolized” in series [16]; “Compound NOT metabolized” in series [17]; “Compound metabolized” in series [18]. Moreover, the “Bacterial Biotransformation” value in series [19] and in [20] was “Compound metabolized” throughout.
